pIC50: −log10 of the molar value.
Tests used:
A549 (lung) = experiment: growth inhibition of human tumour cells, 72 h incubation; assay type: cell-based; settings: 72 hours of incubation
Method: (§1) On the one hand, human cells of different types of cancer were used. The cells were incubated at 37° C. and 5% of CO2 in air, in culture medium RPMI1640 or DMEM with bovine foetal serum (10%) and other supplements and in the presence or absence of the triglycerides of the present invention at different concentrations during 72 hours. It was possible to observe that the hydroxy-triglycerides of the invention have a high efficacy against the growth of human tumour cells, but not against the growth of normal non-tumour cells (human fibroblasts, MRC5).

BXPC3 (pancreas) = experiment: as above; assay type: cell-based; settings: 72 hours of incubation
Method: as §1

[1] = test system: HL-60 (myeloblastic leukaemia); experiment: as above; assay type: cell-based; settings: 72 hours of incubation
Method: as §1

HT-29 (colon) = experiment: as above; assay type: cell-based; settings: 72 hours of incubation
Method: as §1

HeLa (cervix) = experiment: as above; assay type: cell-based; settings: 72 hours of incubation
Method: as §1

HepG2 (liver carcinoma) = experiment: as above; assay type: cell-based; settings: 72 hours of incubation
Method: as §1

[2] = test system: Jurkat (lymphoblastic leukaemia); experiment: as above; assay type: cell-based; settings: 72 hours of incubation
Method: as §1

MDA-MB231 (breast) = experiment: as above; assay type: cell-based; settings: 72 hours of incubation
Method: as §1

MIA-PaCa-2 (pancreas) = experiment: as above; assay type: cell-based; settings: 72 hours of incubation
Method: as §1

NCI1975D (lung) = experiment: as above; assay type: cell-based; settings: 72 hours of incubation
Method: as §1

PC3 (prostate) = experiment: as above; assay type: cell-based; settings: 72 hours of incubation
Method: as §1

SF767 (glioma) = experiment: as above; assay type: cell-based; settings: 72 hours of incubation
Method: as §1

SH-SY5Y (neuroblastoma) = experiment: as above; assay type: cell-based; settings: 72 hours of incubation
Method: as §1

U87M (glioma) = experiment: as above; assay type: cell-based; settings: 72 hours of incubation
Method: as §1

cholesterol in plasma = experiment: plasma cholesterol in SHR rats; assay type: in vivo; settings: p.o.; for Chol, levels of total cholesterol in plasma: 6 days, 400 mg/kg
From the text: Metabolic and cardiovascular pathologies are closely related. The overfeeding which characterises our society not only gives rise to problems of obesity and excess weight. It is also linked to the appearance of diabetes, dyslipidaemia, hypertension, strokes, arteriosclerosis, ictus, etc. All of these pathologies increase the risk of premature death and can even cause death. In this sense, certain natural oils show a certain efficacy against this type of pathologies, but their power is limited. In contrast, the molecules of the invention have an important effect against the development of this type of pathologies. To be able to study the effects of the compounds of the invention for the prevention and treatment of metabolic and cardiovascular pathologies, hypertensive rats were used (SHR strain, spontaneously hypertensive rats). These rats present obesity, high blood pressure, dyslipidaemia (hypercholesterolemia and hypertriglyceridemia), diabetes, metabolic syndrome and other related health problems. Also, SHR rats were used to research the efficacy of the hydroxy-triglycerides for the prevention and treatment of dyslipidaemias. On the one hand, treatments with different oral doses and durations gave rise to reductions in the plasma levels of total cholesterol and its fractions in test animals (Tables 5 and 6). These reductions were marked and significant, returning the cholesterol in plasma values to those found in animals without metabolic/cardiovascular disorders. […] [table] [table]

[3] = target: T1, Glycogen Branching Enzyme 1 (GBE1) variant Y329S (Homo sapiens, UniProt Q04446, Y329S); experiment: activity of purified enzyme GBE1 Y329S in the presence of PC membranes; assay type: biochemical; settings: PC membranes with TGM 20 mol %; non-mutated enzyme = 100% (0.76 nmol/min · ng protein)
T1 sequence (Q04446 1-702 Y329S): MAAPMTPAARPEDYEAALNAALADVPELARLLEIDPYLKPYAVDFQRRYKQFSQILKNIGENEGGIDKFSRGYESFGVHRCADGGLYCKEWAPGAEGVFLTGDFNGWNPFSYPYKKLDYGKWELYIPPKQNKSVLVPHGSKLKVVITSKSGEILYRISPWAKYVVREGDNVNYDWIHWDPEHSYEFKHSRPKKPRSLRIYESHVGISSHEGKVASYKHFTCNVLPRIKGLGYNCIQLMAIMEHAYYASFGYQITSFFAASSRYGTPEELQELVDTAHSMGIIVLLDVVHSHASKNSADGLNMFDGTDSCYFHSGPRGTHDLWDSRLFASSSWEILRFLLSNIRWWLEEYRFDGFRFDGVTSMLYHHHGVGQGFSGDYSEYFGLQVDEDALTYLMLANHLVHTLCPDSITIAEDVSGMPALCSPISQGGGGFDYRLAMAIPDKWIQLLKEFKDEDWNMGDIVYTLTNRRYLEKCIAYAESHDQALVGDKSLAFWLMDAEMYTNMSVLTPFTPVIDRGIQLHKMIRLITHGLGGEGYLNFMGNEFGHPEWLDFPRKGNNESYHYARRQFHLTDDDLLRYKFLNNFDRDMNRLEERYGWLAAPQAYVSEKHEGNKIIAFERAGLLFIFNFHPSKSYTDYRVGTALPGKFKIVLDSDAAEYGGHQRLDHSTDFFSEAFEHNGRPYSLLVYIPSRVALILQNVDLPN
From the text: It has been possible to observe that the molecules of the present invention are capable of regulating the activity of the Glycogen Branching Enzyme 1 (GBE1) and its joining to membranes (Table 9). Alterations in this enzyme give rise to a neurodegenerative process known as APBD (Kakhlon et al., 2013). It has been described that a modification of tyrosine in position 329 of this enzyme (Y329S) causes a reduction in the activity of GBE1. This gives rise to a lower branching of glycogen, which precipitates forming […] which interfere with cell activity (Kakhlon et al., 2013). This gives rise to problems in the function of certain organs, to motor problems and, in some cases, to cognitive decline. We have been able to verify that the hydroxy-triglycerides of the present invention are capable of regulating the joining of native GBE1 (wild type, wt) and with the variant Y329S to membranes and to increase the activity of the form Y329S, which is very low in normal conditions (Table 9). For this reason, the molecules of the present invention are effective for the prevention and treatment of the polyglucosan bodies disease, APBD.

| Structure (SMILES) | pIC50 (A549 (lung)) | pIC50 (BXPC3 (pancreas)) | pIC50 [1] | pIC50 (HT-29 (colon)) | pIC50 (HeLa (cervix)) | pIC50 (HepG2 (liver carcinoma)) | pIC50 [2] | pIC50 (MDA-MB231 (breast)) | pIC50 (MIA-PaCa-2 (pancreas)) | pIC50 (NCI1975D (lung)) | pIC50 (PC3 (prostate)) | pIC50 (SF767 (glioma)) | pIC50 (SH-SY5Y (neuroblastoma)) | pIC50 (U87M (glioma)) | Chol, levels of total cholesterol in plasma (cholesterol in plasma) [mg/dL] | Activity Y329S [3] [%] | other results |
| --- | --- | --- | --- | --- | --- | --- | --- | --- | --- | --- | --- | --- | --- | --- | --- | --- | --- |
| CCC=CCC=CCC=CCCCCCCC(O)C(=O)OCC(COC(=O)C(O)CCCCCCC=CCC=CCC=CCC)OC(=O)C(O)CCCCCCC=CCC=CCC=CCC (stereo not drawn) [TGM3A, 1,2,3-tri(2′-hydroxy-octadec-9′,12′,15′-trienoyl)glycerol] | 4.37 | 4.10 | 4.24 | 3.73 | 3.79 | 4.38 | 4.02 | 3.94 | 3.85 | 4.19 | 3.92 | 4.24 | 4.41 | 4.51 | 49.8 ± 2 | 10 ± 2 |  |
| CCCCCC(O)C(=O)OCC(COC(=O)C(O)CCCCC)OC(=O)C(O)CCCCC (stereo not drawn) [TGM0, 1,2,3-tri(2′-hydroxyheptanoyl)glycerol] |  |  |  |  |  |  |  |  |  |  |  |  |  |  | 62.2 ± 3 | 20 ± 2 | pIC50 (A549 (lung); Homo sapiens, A549): 3.92; pIC50 (BXPC3 (pancreas); Homo sapiens, BXPC-3): 3.53; pIC50 (HT-29 (colon); Homo sapiens, HT-29): 3.58; pIC50 (HeLa (cervix); Homo sapiens, HeLa): 3.70; pIC50 (HepG2 (liver carcinoma); Homo sapiens, HepG2): 3.49; pIC50 ([2]; Homo sapiens, Jurkat): 3.75; pIC50 (MDA-MB231 (breast); Homo sapiens, MDA-MB-231): 3.60; pIC50 (MIA-PaCa-2 (pancreas); Homo sapiens, MIA PaCa-2): 3.55; pIC50 (NCI1975D (lung); Homo sapiens): 3.49; pIC50 (PC3 (prostate); Homo sapiens): 3.64; pIC50 (SF767 (glioma); Homo sapiens, SF767): 3.56; pIC50 (SH-SY5Y (neuroblastoma); Homo sapiens, SH-SY5Y): 3.60; pIC50 (U87M (glioma); Homo sapiens): 3.47 |
| CCCCCCCCC=CCCCCCCC(O)C(=O)OCC(COC(=O)C(O)CCCCCCC=CCCCCCCCC)OC(=O)C(O)CCCCCCC=CCCCCCCCC (stereo not drawn) [TGM1, 1,2,3-tri(2′-hydroxy-octadec-9′-enoyl)glycerol] | 4.54 | 3.68 | 3.61 | 4.03 | 3.74 | 4.06 | 4.49 | 3.89 | 3.84 | 3.53 | 3.62 | 3.55 | 3.89 | 3.59 | 55.5 ± 2 | 7 ± 1 | HDL in plasma (cholesterol in plasma; 14 days, 600 mg/kg, 12 h): 33.44 ± 2.251 mmHgmg/dl; LDL in plasma (cholesterol in plasma; 14 days, 600 mg/kg, 12 h): 3.644 ± 0.3244 mmHgmg/dl; Total cholesterol in plasma (cholesterol in plasma; 14 days, 600 mg/kg, 12 h): 49.11 ± 3.084 mmHgmg/dl |
| CCC=CCC=CCC=CCC=CCC=CCC=CCC(O)C(=O)OCC(COC(=O)C(O)CC=CCC=CCC=CCC=CCC=CCC=CCC)OC(=O)C(O)CC=CCC=CCC=CCC=CCC=CCC=CCC (stereo not drawn) [TGM6, 1,2,3-tri(2′-hydroxy-docosa-4′,7′,10′,13′,16′,19′-hexanoyl)glycerol] | 6.00 | 4.74 | 5.22 | 4.47 | 4.92 | 4.52 | 4.60 | 5.05 | 4.54 | 4.68 | 5.30 | 4.39 | 5.15 | 4.44 | 48.9 ± 3 | 5 ± 1 |  |
| CCCCCC=CCC=CCC=CCC=CCCC(O)C(=O)OCC(COC(=O)C(O)CCC=CCC=CCC=CCC=CCCCCC)OC(=O)C(O)CCC=CCC=CCC=CCC=CCCCCC (stereo not drawn) [TGM4, 1,2,3-tri(2′-hydroxy-eicosa-5′,8′,11′,14′-tetraenoyl)glycerol] | 6.05 | 4.14 | 4.49 | 4.96 | 5.22 | 4.66 | 3.82 | 4.44 | 4.37 | 5.00 | 4.74 | 4.68 | 4.57 | 4.77 | 72.7 ± 2 | 4 ± 1 |  |
| CCCCCC=CCC=CCC=CCCCC(O)C(=O)OCC(COC(=O)C(O)CCCC=CCC=CCC=CCCCCC)OC(=O)C(O)CCCC=CCC=CCC=CCCCCC (stereo not drawn) [TGM3G, 1,2,3-tri(2′-hydroxy-octadec-6′,9′,12′-trienoyl)glycerol] | 4.41 | 4.09 | 4.38 | 4.23 | 4.12 | 3.73 | 3.76 | 3.73 | 3.91 |  | 4.03 | 4.34 | 3.81 | 4.55 | 65.1 ± 4 | 9 ± 4 |  |
| CCC=CCC=CCC=CCC=CCC=CCCC(O)C(=O)OCC(COC(=O)C(O)CCC=CCC=CCC=CCC=CCC=CCC)OC(=O)C(O)CCC=CCC=CCC=CCC=CCC=CCC (stereo not drawn) [TGM5, 1,2,3-tri(2′-hydroxy-eicosa-5′,8′,11′,14′,17′-pentaenoyl)glycerol] | 5.40 | 4.77 | 4.89 | 5.10 | 4.72 | 4.28 | 5.05 | 4.74 | 4.64 | 4.85 | 4.68 | 4.59 | 4.54 | 4.37 | 58.4 ± 3 | 16 ± 3 |  |
| CCCCCC=CCC=CCCCCCCC(O)C(=O)OCC(COC(=O)C(O)CCCCCCC=CCC=CCCCCC)OC(=O)C(O)CCCCCCC=CCC=CCCCCC (stereo not drawn) [TGM2, 1,2,3-tri(2′-hydroxy-octadec-9′,12′-dienoyl)glycerol] | 5.70 | 4.51 | 3.94 | 3.88 | 3.83 | 4.60 | 4.17 | 4.24 | 4.11 | 4.27 | 4.38 | 4.51 | 4.13 | 4.25 | 51.7 ± 2 | 11 ± 2 |  |
